Source: PubChem BioAssay AID192 (DTP/NCI, 2004)
Several values for one entry are separate records, joined by “and”; a condition that tells them apart may be missing. Identical values can stand only once. Toxic doses and inconclusive results are not listed.

System: BDF1 mice, B16 melanoma ip, median survival T/C
Test: NCI In Vivo Anticancer Drug Screen. Data for tumor model B16 Melanoma (intraperitoneal) in B6D2F1 (BDF1) mice
Settings: endpoint: median survival time, higher = longer survival
Summary of the method: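 Tumor-bearing mice received test compound or vehicle. Survival or tumor size was then measured in both groups. The treated-group figure was divided by the control-group figure.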

[1] = dose: 50.0 mg/kg/injection, schedule: Q01DX009 (ip), vehicle: Klucel (hydroxypropylcellulose) (HPC)
[2] = dose: 100.0 mg/kg/injection, schedule: Q01DX009 (ip), vehicle: Klucel (hydroxypropylcellulose) (HPC)
[3] = dose: 200.0 mg/kg/injection, schedule: Q01DX009 (ip), vehicle: Klucel (hydroxypropylcellulose) (HPC)
[4] = dose: 100.0 mg/kg/injection, schedule: Q04DX003 (ip), vehicle: saline with Tween-80
[5] = dose: 200.0 mg/kg/injection, schedule: Q04DX003 (ip), vehicle: saline with Tween-80
[6] = dose: 6.25 mg/kg/injection, schedule: Q01DX009 (ip), vehicle: saline
[7] = dose: 12.5 mg/kg/injection, schedule: Q01DX009 (ip), vehicle: saline
[8] = dose: 25.0 mg/kg/injection, schedule: Q01DX009 (ip), vehicle: saline
[9] = dose: 25.0 mg/kg/injection, schedule: Q01DX009 (ip), vehicle: Klucel (hydroxypropylcellulose) (HPC)

For `C/C=C/CC(C/C=C/C)C1CC[N-]CC1.C/C=C/CC(C/C=C/C)C1CC[N-]CC1.[Cl][Pt+2]([Cl])([Cl])[Cl]`, which T/C (dose: 1.56 mg/kg/injection, schedule: Q01DX009 (ip), vehicle: other) is on record?
The T/C was 97 % of control.

What about the T/C (dose: 3.13 mg/kg/injection, schedule: Q01DX009 (ip), vehicle: other) of the same molecule?
Its T/C is 97 % of control.

And the T/C (dose: 6.25 mg/kg/injection, schedule: Q01DX009 (ip), vehicle: other)?
The T/C was 100 % of control.

And the T/C (dose: 12.5 mg/kg/injection, schedule: Q01DX009 (ip), vehicle: other)?
Its T/C is 97 % of control.

What about the T/C (dose: 25.0 mg/kg/injection, schedule: Q01DX009 (ip), vehicle: other) of the same molecule?
The T/C was 96 % of control.

With `C=CCNC(=S)Nc1ccc(C)cc1` as the molecule, how does the T/C [1] read?
The T/C was 100 % of control.

And the T/C [2]?
The T/C was 93 % of control.

What about the T/C [3] of the same molecule?
Its T/C is 90 % of control.

Which results are given for `O=C(CCCl)NC(Cc1ccccc1)c1ccccc1` (stereo not drawn)?
T/C [2]: 110 % of control; T/C [3]: 96 % of control; T/C (dose: 400.0 mg/kg/injection, schedule: Q01DX009 (ip), vehicle: Klucel (hydroxypropylcellulose) (HPC)): 96 % of control

Which results are given for `Cc1ccc2nc3c4ccccc4c4ccccc4c3nc2c1`?
T/C (dose: 100.0 mg/kg/injection, schedule: Q04DX003 (ip), vehicle: Klucel (hydroxypropylcellulose) (HPC)): 102 % of control; T/C (dose: 200.0 mg/kg/injection, schedule: Q04DX003 (ip), vehicle: Klucel (hydroxypropylcellulose) (HPC)): 97 % of control; T/C (dose: 400.0 mg/kg/injection, schedule: Q04DX003 (ip), vehicle: Klucel (hydroxypropylcellulose) (HPC)): 91 % of control

How did the T/C [4] turn out when `CC(C)(C)n1cc(C(=O)c2ccccc2)cc1-c1ccccc1` was run?
Its T/C is 97 % of control.

What about the T/C [5] of the same molecule?
The T/C was 100 % of control.

And the T/C (dose: 400.0 mg/kg/injection, schedule: Q04DX003 (ip), vehicle: saline with Tween-80)?
The T/C was 100 % of control.

Which T/C (dose: 1.5 mg/kg/injection, schedule: Q01DX009 (ip), vehicle: Klucel (hydroxypropylcellulose) (HPC)) does the source give for `COC(=O)[C@@H]1[C@@H](O)[C@H](OC(=O)c2cc(OC)c(OC)c(OC)c2)C[C@@H]2CN3CCc4c([nH]c5ccccc45)[C@H]3C[C@@H]21` here?
The T/C was 107 % of control.

What about the T/C (dose: 3.0 mg/kg/injection, schedule: Q01DX009 (ip), vehicle: Klucel (hydroxypropylcellulose) (HPC)) of the same molecule?
The T/C was 98 % of control.

And the T/C (dose: 6.0 mg/kg/injection, schedule: Q01DX009 (ip), vehicle: Klucel (hydroxypropylcellulose) (HPC))?
The T/C was 97 % of control.

Which T/C (dose: 50.0 mg/kg/injection, schedule: Q04DX003 (ip), vehicle: saline with Tween-80) does the source give for `NC(N)=NC1=NC(=O)CS1` here?
Its T/C is 102 % of control.

And the T/C [2]?
The T/C was 93 % of control.

And the T/C [4]?
The T/C was 102 % of control.

What about the T/C [3] of the same molecule?
The T/C was 90 % of control.

And the T/C [5]?
The T/C was 100 % of control.

Which T/C (dose: 3.12 mg/kg/injection, schedule: Q01DX009 (ip), vehicle: saline) does the source give for `OCCNCCN1CCN(CCCN2c3ccccc3Sc3ccc(C(F)(F)F)cc32)CC1` here?
The T/C was 108 % of control.

And the T/C [6]?
The T/C was 102 % of control.

And the T/C [7]?
The T/C was 100 % of control.

What about the T/C [8] of the same molecule?
Its T/C is 92 % of control.

Which results are given for `O=C1C=CC(n2cc(F)c(=O)[nH]c2=O)O1` (stereo not drawn)?
T/C [6]: 97 % of control; T/C [7]: 95 % of control; T/C [8]: 96 % of control; T/C (dose: 50.0 mg/kg/injection, schedule: Q01DX009 (ip), vehicle: saline): 107 % of control; T/C (dose: 100.0 mg/kg/injection, schedule: Q01DX009 (ip), vehicle: saline): 97 % of control

How did the T/C (dose: 0.74 mg/kg/injection, schedule: Q01DX009 (ip), vehicle: saline) turn out when `CC(C)CC(NC(=O)C(N)C(C)C)C(=O)NC(CCCCN)C(=O)Nc1ccc(N(CCCl)CCCl)cc1` (stereo not drawn) was run?
Its T/C is 105 % of control.

What about the T/C (dose: 1.49 mg/kg/injection, schedule: Q01DX009 (ip), vehicle: saline) of the same molecule?
Its T/C is 109 % of control and 120 % of control.

And the T/C (dose: 5.95 mg/kg/injection, schedule: Q01DX009 (ip), vehicle: saline)?
Its T/C is 159 % of control and 182 % of control.

How did the T/C [9] turn out when `O=C(/C=C/C(=O)Oc1ccc(Cl)cc1Cl)Oc1ccc(Cl)cc1Cl` was run?
The T/C was 100 % of control.

And the T/C [1]?
Its T/C is 91 % of control.

What about the T/C [2] of the same molecule?
Its T/C is 88 % of control and 94 % of control.

What does the source list for `O=C1CNC(c2ccccc2)c2cc(Cl)ccc2N1` (stereo not drawn)?
T/C (dose: 12.5 mg/kg/injection, schedule: Q01DX009 (ip), vehicle: Klucel (hydroxypropylcellulose) (HPC)): 107 % of control; T/C [9]: 97 % of control; T/C [1]: 107 % of control; T/C [2]: 94 % of control; T/C [3]: 102 % of control

Which T/C [9] does the source give for `CC1(C)N=C(N)N=C(N)N1c1cccc(OCCOc2ccc([N+](=O)[O-])cc2)c1` here?
Its T/C is 101 % of control.

And the T/C [1]?
Its T/C is 102 % of control.

And the T/C [2]?
The T/C was 100 % of control.

And the T/C [3]?
Its T/C is 102 % of control.

What does the source list for `Nc1cccc2c1nc(NCCO)c1ccccc12`?
T/C (dose: 50.0 mg/kg/injection, schedule: Q01DX009 (ip), vehicle: saline with Tween-80): 94 % of control; T/C (dose: 100.0 mg/kg/injection, schedule: Q01DX009 (ip), vehicle: saline with Tween-80): 102 % of control; T/C (dose: 200.0 mg/kg/injection, schedule: Q01DX009 (ip), vehicle: saline with Tween-80): 94 % of control; T/C (dose: 400.0 mg/kg/injection, schedule: Q01DX009 (ip), vehicle: saline with Tween-80): 102 % of control

Which results are given for `O=C(NCCCCCCNC(=O)N1CC1)N1CC1`?
T/C (dose: 0.3 mg/kg/injection, schedule: Q01DX009 (ip), vehicle: saline): 101 % of control; T/C (dose: 0.6 mg/kg/injection, schedule: Q01DX009 (ip), vehicle: saline): 96 % of control; T/C (dose: 1.2 mg/kg/injection, schedule: Q01DX009 (ip), vehicle: saline): 103 % of control; T/C (dose: 2.4 mg/kg/injection, schedule: Q01DX009 (ip), vehicle: saline): 92 % of control; T/C (dose: 4.8 mg/kg/injection, schedule: Q01DX009 (ip), vehicle: saline): 103 % of control
